Measurements as given in patent publication US5112992A, “Production of polycarboxylic acids with hafnium-activated cobalt catalyst” (Amoco Corporation, priority 1991, dated 1992).

Experiments:
[1] = Metal remaining soluble in filtrate (pyromellitic acid) after durene oxidation
[2] = Solubility of hafnium and zirconium tetrabromides in acetic acid-water mixtures in presence of trimellitic acid
Description: Solubility of hafnium compounds, i.e., hafnium bromide, was determined in acetic acid-water mixtures in the presence of trimellitic acid and pyromellitic acid. Hafnium tetrabromide, 0.0012M, was heated in a 20% water-acetic acid solution to reflux. Trimellitic acid (0.71M) was added.

metal remained soluble ([1]; Example V: durene oxidation reactor effluent cooled to room temperature and filtered): 36% | % Soluble ([1]; Metal in filtrate after durene oxidation): 32% | Appearance of solution after adding trimellitic acid ([2]; 0.0012M tetrabromide in 20% water-acetic acid at reflux, trimellitic acid 0.71M added): remained clear | % Soluble ([2]; Metal + trimellitic acid in 20% H2O-HOAc at 25° C., solution cooled and solids filtered off, molar basis): 36% | % Soluble ([2]; Metal + trimellitic acid in 20% H2O-HOAc at 100° C.): 100%
Compound: [Br][Hf]([Br])([Br])[Br] [Hafnium tetrabromide]
